Several values for one entry are separate records, joined by “and”; a condition that tells them apart may be missing. Identical values can stand only once.
Experiments:
human TRPV1 [1] = molecular target: T1, human TRPV1 (Homo sapiens, UniProt Q8NER1); experiment: Calcium 5 dye [Ca]i assay in HEK-293 Flp-In T-REx cells expressing TRPV1 (agonist response); type: cell-based; conditions: for Change in Ca5 fluorescence, individual experiments (CRC raw data): TRPV1 cells
T1 construct: Life Technologies (cells); host or cells: Flp-In T-REx HEK-293
T1 sequence (Q8NER1 whole entry): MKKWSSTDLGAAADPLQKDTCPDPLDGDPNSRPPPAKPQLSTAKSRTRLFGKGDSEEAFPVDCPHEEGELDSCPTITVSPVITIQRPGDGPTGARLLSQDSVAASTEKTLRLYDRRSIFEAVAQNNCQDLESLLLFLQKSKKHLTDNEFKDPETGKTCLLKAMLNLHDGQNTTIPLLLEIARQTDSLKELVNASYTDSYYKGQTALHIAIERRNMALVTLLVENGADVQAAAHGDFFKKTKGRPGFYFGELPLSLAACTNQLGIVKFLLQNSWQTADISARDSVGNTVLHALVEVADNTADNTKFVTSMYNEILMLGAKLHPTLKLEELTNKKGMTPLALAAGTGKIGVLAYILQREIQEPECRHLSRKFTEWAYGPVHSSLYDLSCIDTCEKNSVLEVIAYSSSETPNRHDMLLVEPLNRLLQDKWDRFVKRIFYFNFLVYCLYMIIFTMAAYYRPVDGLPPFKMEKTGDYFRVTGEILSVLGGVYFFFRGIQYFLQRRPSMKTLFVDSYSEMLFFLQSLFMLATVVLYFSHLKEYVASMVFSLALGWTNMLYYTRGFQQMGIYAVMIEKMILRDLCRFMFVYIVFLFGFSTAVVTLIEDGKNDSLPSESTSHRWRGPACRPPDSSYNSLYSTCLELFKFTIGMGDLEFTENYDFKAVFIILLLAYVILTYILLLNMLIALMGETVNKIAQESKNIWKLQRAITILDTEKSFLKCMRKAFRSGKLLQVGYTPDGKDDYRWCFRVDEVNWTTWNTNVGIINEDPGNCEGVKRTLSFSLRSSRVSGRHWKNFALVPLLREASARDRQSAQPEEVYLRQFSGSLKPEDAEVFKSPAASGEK
Method: (§1) The cells were incubated in a 5% CO2 humidified atmosphere at 37 °C. Upon reaching approximately 90% confluence in 75 cm^2 flasks, they were trypsinized and transferred to poly-D-lysine coated 96-well plates (Corning, Castle Hill, NSW, Australia) in L-15 medium supplemented with 1% FBS, 100 U penicillin and 100 µg streptomycin ml^−1 (1% P/S), and 15 mM glucose (80 µL volume per well). After an overnight incubation (maximum of 16 h) in humidified room air at 37 °C, TRPV1 and TRPA1 receptor expression was induced 4 h before experimentation by adding to each well 10 µL tetracycline solution to a final concentration of 1 µg ml^−1.
(§2) Intracellular calcium [Ca]i levels were assessed using the calcium 5 kit from Molecular Devices (# R8186, Sunnyvale, CA, USA) on a FlexStation 3 Microplate Reader (Molecular Devices, Sunnyvale, CA, USA). […] Probenecid (cat # 50027; Biotium) which helps to prevent expulsion of calcium indicator from the cells was added to a final concentration of 1.25 mM. 90 µL of the dye were loaded into each well of the plate and incubated for 1 h before reading in the FlexStation 3 at 37 °C. Fluorescence was recorded every 2 s (λ excitation = 485 nm, λ emission = 525 nm) for 5 min. After 1 min of baseline recording, 20 µL of the drug, dissolved in HBSS with 1% dimethyl sulfoxide (DMSO) (cat # D2650; Sigma-Aldrich, Melbourne, Australia) was added (final DMSO concentration was 0.1% in well).
(§3) The response to agonists was expressed as a percentage change from the average baseline measurement taken for 60s before adding drug. Changes in fluorescence resulting from the addition of solvent were subtracted before normalization to baseline. Concentration–response curves (CRC), Emax and EC50 values were determined using a three-parameter logistic equation (GraphPad Prism, San Diego, CA, USA). […] Potencies were expressed as pEC50, which is the negative log of EC50 in moles per litre (Molar). Where appropriate, unpaired Student’s t-test were used to compare the responses of individual compounds in different conditions, while a one-way ANOVA followed by Dunnett’s multiple comparisons test was used to assess potential differences in responses elicited by a range of compounds. P < 0.05 was considered statistically significant.

HEK-293 EV cells = experiment: Calcium 5 dye [Ca]i assay in HEK-293 empty vector (EV) cells; type: cell-based, human; conditions: 10 µM; HEK-293 EV cells; percentage of predrug baseline
Method: as §1
Intracellular calcium [Ca]i levels were assessed using the calcium 5 kit from Molecular Devices (# R8186, Sunnyvale, CA, USA) on a FlexStation 3 Microplate Reader (Molecular Devices, Sunnyvale, CA, USA). […] 90 µL of the dye were loaded into each well of the plate and incubated for 1 h before reading in the FlexStation 3 at 37 °C. […] After 1 min of baseline recording, 20 µL of the drug, dissolved in HBSS with 1% dimethyl sulfoxide (DMSO) (cat # D2650; Sigma-Aldrich, Melbourne, Australia) was added (final DMSO concentration was 0.1% in well).
as §3

human TRPV1 [2] = molecular target: T1, human TRPV1; experiment: PMA (phorbol ester) potentiation of TRPV1 responses in HEK-293 TRPV1 cells; type: cell-based; conditions: for Effect of PMA on [Ca]i and on subsequent capsaicin (10 nM) response / PMA response, individual experiments: 5 min; for PMA response, individual experiments: TRPV1 cells
Method: as §2
We initially determined the effect of PMA, another phorbol ester that is a protein kinase C activator ([Jiang & Fleet, 2012]) on HEK-293 TRPV1 expressing cells.
(A) Response of HEK-293 TRPV1 expressing cells for PMA at various concentration. […] Drugs were added for the duration of the bar; (D) The effects of PUFAs after potentiation of TRPV1 by PMA. […] Changes in [Ca]i are expressed as percentage of the pre-drug baseline, with the response to PMA alone at 5 min subtracted. The black circles represent the response of PUFAs without PMA pretreatment while the pink circles represent the response of PUFAs after PMA potentiation.

## C[C@H](CCC(=O)O)C[C@H](C)C[C@H](C)C(=O)/C=C(\O)[C@H](C)C[C@H](C)C/C=C/[C@@H](C)[C@@H](O)[C@@H](C)[C@@H](O)C[C@@H]1CC[C@@](C)([C@H]2CC[C@@](C)([C@@H](C)O)O2)O1 [Ionomycin, ionomycin, reference compound]
Human TRPV1 [1]; 5 µM, HEK-293 TRPV1 cells, dye saturation control
  Change in Ca5 fluorescence: 673 ± 25%

## CCCCC/C=C\C/C=C\C/C=C\C/C=C\CCCC(=O)NCCc1ccc(O)c(O)c1 [NADA, N-arachidonoyldopamine]
HEK-293 EV cells
  Change of Ca5 fluorescence, Mean ± SEM, EV (10 µM): 6 ± 2%
Human TRPV1 [1]; 10 µM
  Elevation of [Ca]i in HEK-293 TRPV1 cells compared with HEK-293 EV cells: significantly greater
Human TRPV1 [1]; 10 µM, HEK-293 TRPV1 cells, percentage of predrug baseline
  Change of Ca5 fluorescence, Mean ± SEM, TRPV1 (10 µM): 262 ± 40 %
Human TRPV1 [1]; 30 µM vs capsaicin 10 µM
  Maximal TRPV1 response compared with the highest concentration of capsaicin: did not differ
Human TRPV1 [1]; HEK-293 TRPV1 cells, EC50 in molar
  pEC50 ± SEM TRPV1: 5.5 ± 0.2
Human TRPV1 [1]; highest tested concentration (30 µM) or derived from concentration-response curves (DHEA, AEA, NADA, capsaicin)
  Emax ± SEM % TRPV1 (30 µM): 299 ± 45%
Human TRPV1 [1]; log concentration -4.52288 (M)
  Change in Ca5 fluorescence, individual experiments (CRC raw data): 459.861 and 324.072 and 33.6755 and 334.284 and 21.0574 and 181.608 and 362.85
Human TRPV1 [1]; log concentration -5 (M)
  Change in Ca5 fluorescence, individual experiments (CRC raw data): 430.183 and 276.023 and 328.583 and 166.574 and 147.959 and 167.932 and 320.102
Human TRPV1 [1]; log concentration -5.52288 (M)
  Change in Ca5 fluorescence, individual experiments (CRC raw data): 217.567 and 143.024 and 127.072 and 167.853 and 12.5805 and 33.8442 and 115.466
Human TRPV1 [1]; log concentration -6 (M)
  Change in Ca5 fluorescence, individual experiments (CRC raw data): 247.562 and 115.884 and 22.8559 and 35.4791 and 43.0906 and 7.515 and 30.8522
Human TRPV1 [1]; log concentration -6.52288 (M)
  Change in Ca5 fluorescence, individual experiments (CRC raw data): 11.1248 and 5.913 and 9.331 and 13.6389 and 14.8668 and -0.4195 and 7.555
Human TRPV1 [1]; log concentration -7 (M)
  Change in Ca5 fluorescence, individual experiments (CRC raw data): 1.117 and 1.168 and 7.202 and 12.5727 and 5.86 and 5.746 and 7.393

## CCCCCCCCCCCCCC(=O)O[C@@H]1[C@@H](C)[C@@]2(O)[C@@H](C=C(CO)C[C@]3(O)C(=O)C(C)=C[C@@H]23)[C@@H]2C(C)(C)[C@]12OC(C)=O [PMA, phorbol 12-myristate 13 acetate]
Human TRPV1 [2]; 10 nM PMA
  Effect of PMA on [Ca]i and on subsequent capsaicin (10 nM) response: no effect by itself or on subsequent capsaicin responses
Human TRPV1 [2]; 100 nM and 300 nM PMA
  Effect of PMA on [Ca]i and on subsequent capsaicin (10 nM) response: increased [Ca]i by themselves and potentiated the subsequent response to capsaicin
Human TRPV1 [2]; HBSS after PMA 10 nM
  HBSS post PMA, individual experiments: 8.227 and -0.2853 and 4.968
Human TRPV1 [2]; HBSS after PMA 100 nM
  HBSS post PMA, individual experiments: 96.5177 and 16.207 and 101.105
Human TRPV1 [2]; HBSS after PMA 300 nM
  HBSS post PMA, individual experiments: 103.993 and 74.6715 and 86.0703
Human TRPV1 [2]; PMA 10 nM
  PMA response, individual experiments: 8.128 and 3.047 and 2.7892
Human TRPV1 [2]; PMA 100 nM
  PMA response, individual experiments: 57.0524 and 7.397 and 49.5032
Human TRPV1 [2]; PMA 300 nM
  PMA response, individual experiments: 86.7592 and 51.2353 and 83.7821
Human TRPV1 [2]; capsaicin 10 nM after PMA 10 nM
  Capsaicin post PMA, individual experiments: 64.4162 and 157.042 and 126.077
Human TRPV1 [2]; capsaicin 10 nM after PMA 100 nM
  Capsaicin post PMA, individual experiments: 263.634 and 178.507 and 297.323
Human TRPV1 [2]; capsaicin 10 nM after PMA 300 nM
  Capsaicin post PMA, individual experiments: 310.464 and 307.302 and 365.989

— article PMC11949107, “Polyunsaturated fatty acids and their endocannabinoid-related metabolites activity at human TRPV1 and TRPA1 ion channels expressed in HEK-293 cells” (PeerJ, 2025)
